Marks after values point to notes of the source that are not given here. Where a SMILES comes first, the peptide text is derived from it. Bridges are numbered along the chain shown (N, C = ends). The star is where a group is joined. CH3O(CH2CH2O)11CH2CH2CO = COCCOCCOCCOCCOCCOCCOCCOCCOCCOCCOCCOCCC(=O)* Where only a bound is given, the exact number is not on record here.

For data set [1], the target named is Recombinant human NEP (Homo sapiens, UniProt P08473). In words: in vitro NEP cleavage assay (disappearance of non-cleaved CNP variant). In short, it runs like this: (§1)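 Recombinant human NEP (1 ug/mL final) incubated with 100 uM CNP variant in 0.1 M Tris, pH 7, at 37° C for various times, then quenched with EDTA (10 mM final) and heat. Samples reduced and analysed by HPLC and mass spectrometry. Half-life derived from loss of intact variant over time.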
Chain of Recombinant human NEP (P08473 whole entry): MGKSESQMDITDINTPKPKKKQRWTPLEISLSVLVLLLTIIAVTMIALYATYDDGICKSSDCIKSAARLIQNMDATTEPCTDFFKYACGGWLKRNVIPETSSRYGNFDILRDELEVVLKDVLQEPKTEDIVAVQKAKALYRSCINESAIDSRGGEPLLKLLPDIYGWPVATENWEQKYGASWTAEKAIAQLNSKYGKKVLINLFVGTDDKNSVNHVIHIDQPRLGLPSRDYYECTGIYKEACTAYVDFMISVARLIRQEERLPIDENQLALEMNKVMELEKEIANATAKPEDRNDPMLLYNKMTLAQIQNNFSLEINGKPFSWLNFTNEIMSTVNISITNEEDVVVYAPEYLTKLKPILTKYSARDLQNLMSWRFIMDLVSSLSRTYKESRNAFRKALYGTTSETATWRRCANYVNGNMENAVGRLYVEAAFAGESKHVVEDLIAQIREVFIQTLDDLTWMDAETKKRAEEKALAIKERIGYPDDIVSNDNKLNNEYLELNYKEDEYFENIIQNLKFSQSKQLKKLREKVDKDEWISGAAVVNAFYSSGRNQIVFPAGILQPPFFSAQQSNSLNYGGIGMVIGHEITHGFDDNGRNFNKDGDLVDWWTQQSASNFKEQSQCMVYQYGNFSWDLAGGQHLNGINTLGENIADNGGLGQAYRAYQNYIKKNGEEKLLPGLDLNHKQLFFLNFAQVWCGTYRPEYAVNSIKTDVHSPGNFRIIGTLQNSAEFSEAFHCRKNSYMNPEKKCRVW

Data set [2] addresses neutral endopeptidase (NEP) (Homo sapiens, UniProt P08473). In words: in vitro. As to conditions: human, pH 7. In short, it runs like this:
as §1

Data set [3] is described as follows: IgG assay (immunogenicity) in mice. As to the method: An IgG assay was performed to assess whether an IgG immune response was triggered by 5 week exposure of achondroplastic FGFR3^ach mice to CNP22, CNP37 or PEO24-GANRR-CNP22(K4R) (“CNP27-PEO24”) (SEQ ID NO: 36). IgG is the most predominant immunoglobulin in mouse and human serum and is produced as part of the secondary immune response to an antigen. The IgG response to administration of the CNP peptides was determined as follows. 96-well plates were coated with 100 ng/mL CNP22, CNP37 or PEO24-GANRR-CNP22(K4R) (SEQ ID NO: 36) in BupH PBS buffer (Pierce/Thermo, Cat. No. 28372, Rockford, Ill.). After overnight incubation, plates were blocked with Casein-PBS blocking buffer (Pierce/Thermo, Cat. No. 37528) for two hours at room temperature with shaking at 300 rpm. After washing with wash buffer (1×PBS with 0.05% Tween), diluted serum samples from a terminal bleed (diluted 1:25) were added to the plate. Positive and negative controls were also loaded onto the plate. Positive control was 1:25 diluted serum (pooled from 6 individual FVB mice) with anti-CNP22 antibody added (Bachem rabbit anti-CNP22 IgG, Cat. No. T-4222) at 1:1000 dilution. Negative control was the diluted pooled serum. After two hours of incubation, the plates were washed and secondary antibody diluted in blocking buffer was added to the wells. For the mouse serum samples, anti-mouse IgG Fcγ (peroxidase-conjugated affinipure goat anti-mouse IgG, Fcγ fragment, Cat. No. 115-035-071, Jackson Immunoresearch, West Grove, Pa.) was added at a 1:10,000 dilution. For the positive and negative controls, anti-rabbit IgG-HRP (Santa Cruz Biotechnology, Cat. No. SC-2004, Santa Cruz, Calif.) was added to blocking buffer. After two hours of incubation at room temperature with shaking at 300 rpm, plates were washed with wash buffer. 100 uL of TMB (One-step TMB, Pierce/Thermo, Cat. No. 34022) was added to all wells. Plates were incubated at room temperature for 15 minutes with shaking at 300 rpm. Colorimetric reactions were stopped by the addition of 100 uL of 2 N H2SO4. Plates were read at 450 nm (Spectramax, Molecular Devices, Sunnyvale, Calif.) and data was analyzed using SoftMax Pro software (Molecular Devices).
The immunogenic response of wild-type mice administered G-CNP37, PEO12-GANRR-CNP22(K4R) (SEQ ID NO: 36) or Pro-Gly-CNP37, as measured by an increase in serum IgG level, was also assessed by examining terminal bleed serum samples as described above.

Data set [4] relates to wild-type FVB mice. In words: efficacy of CNP variants on bone growth in wild-type mice. Type of data set: in vivo, mouse. The following applies: 200 nmol/kg s.c. once daily for 5 weeks. As to the method:
The in vivo effects of CNP variants on bone growth were assessed in wild-type mice. Three week old FVB wild-type male mice received daily subcutaneous (s.c.) injection of either vehicle, G-CNP37 (200 nmol/kg) or […]”) (SEQ ID NO: 36) (200 nmol/kg) for 5 weeks. Body weight was measured at least once weekly. Tail length was measured at least once weekly using digital caliper readings, and body length (naso-anal length), bone length (tibia, femur, ulna and humerus), skull length (anterior to posterior cranial segment) and lumbar vertebrae 5 (LV5) length were measured after 5 weeks of treatment using a caliper. X-rays were taken at baseline and after 5 weeks of treatment. […] In another study, various dosing regimens of Pro-Gly-CNP37 were administered for nine weeks followed by one week of recovery. Wild-type FVB mice were dosed s.c. with: • (1) vehicle daily for nine weeks, followed by one week of recovery; • (2) 20 nmol/kg Pro -Gly-CNP37 daily for one week, followed by three doses per week for eight weeks and one week of recovery; • (3) 20 nmol/kg Pro-Gly-CNP37 on alternating weeks; or • (4) 5 nmol/kg Pro-Gly-CNP37 daily for nine weeks followed by one week of recovery.

For data set [5], the target named is NPR-B (natriuretic peptide receptor B), murine, expressed endogenously on NIH3T3 cells (murine) (UniProt Q6VVW5). In words: cell-based or functional assay.
Chain of NPR-B (natriuretic peptide receptor B), murine, expressed endogenously on NIH3T3 cells (murine) (Q6VVW5 17-1047): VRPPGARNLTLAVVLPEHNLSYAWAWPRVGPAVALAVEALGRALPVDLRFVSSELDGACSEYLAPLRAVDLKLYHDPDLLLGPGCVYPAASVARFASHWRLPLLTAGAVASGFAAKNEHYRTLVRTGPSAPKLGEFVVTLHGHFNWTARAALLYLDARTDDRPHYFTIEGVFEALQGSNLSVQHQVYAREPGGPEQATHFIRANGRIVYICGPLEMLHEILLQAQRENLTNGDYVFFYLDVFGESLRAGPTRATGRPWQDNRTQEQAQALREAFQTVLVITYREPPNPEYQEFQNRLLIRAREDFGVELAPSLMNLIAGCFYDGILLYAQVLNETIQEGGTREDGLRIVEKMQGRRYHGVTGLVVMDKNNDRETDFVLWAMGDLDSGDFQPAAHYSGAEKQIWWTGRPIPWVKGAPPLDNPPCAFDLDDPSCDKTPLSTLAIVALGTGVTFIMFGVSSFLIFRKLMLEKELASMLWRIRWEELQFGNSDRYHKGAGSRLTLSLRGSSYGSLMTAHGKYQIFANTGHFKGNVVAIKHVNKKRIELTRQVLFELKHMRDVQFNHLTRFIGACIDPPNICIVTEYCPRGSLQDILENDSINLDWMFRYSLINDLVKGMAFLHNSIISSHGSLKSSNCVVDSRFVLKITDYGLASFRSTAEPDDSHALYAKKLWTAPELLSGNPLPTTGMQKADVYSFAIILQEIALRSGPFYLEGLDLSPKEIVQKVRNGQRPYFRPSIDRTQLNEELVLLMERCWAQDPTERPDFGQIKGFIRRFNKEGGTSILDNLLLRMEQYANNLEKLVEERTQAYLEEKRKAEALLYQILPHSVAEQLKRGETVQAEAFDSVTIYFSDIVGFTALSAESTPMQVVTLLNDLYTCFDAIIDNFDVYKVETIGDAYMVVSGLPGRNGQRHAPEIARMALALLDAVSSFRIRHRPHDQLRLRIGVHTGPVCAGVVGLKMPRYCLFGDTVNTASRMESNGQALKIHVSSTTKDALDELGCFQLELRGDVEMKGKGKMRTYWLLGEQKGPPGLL
Data set [6] concerns the target NPR-B (Homo sapiens, UniProt P20594). The following applies: read-out: affinity to NPR-B; cited from earlier work.
Data set [7] in a line: pharmacokinetics in rats (plasma CNP immunoreactivity by RIA). Type of data set: in vivo, rat. As to the method:
Recombinant wild-type CNP22, CNP37 and PEO24-GANRR-CNP22 […]) (SEQ ID NO: 36) were evaluated. […] Standard and QC samples were prepared. […] Plasma CNP immunoreactivity was employed for pharmacokinetics (PK) analysis. PK analysis was performed using WINNONLIN® Professional (Pharsight Corporation).

For data set [8] the following is noted: normal human; cited from earlier work.
Data set [9] has as its target NPR-C (Homo sapiens, UniProt P17342). The following applies: read-out: affinity to NPR-C; cited from earlier work.

Chain of NPR-B (P20594 23-1047, species assumed): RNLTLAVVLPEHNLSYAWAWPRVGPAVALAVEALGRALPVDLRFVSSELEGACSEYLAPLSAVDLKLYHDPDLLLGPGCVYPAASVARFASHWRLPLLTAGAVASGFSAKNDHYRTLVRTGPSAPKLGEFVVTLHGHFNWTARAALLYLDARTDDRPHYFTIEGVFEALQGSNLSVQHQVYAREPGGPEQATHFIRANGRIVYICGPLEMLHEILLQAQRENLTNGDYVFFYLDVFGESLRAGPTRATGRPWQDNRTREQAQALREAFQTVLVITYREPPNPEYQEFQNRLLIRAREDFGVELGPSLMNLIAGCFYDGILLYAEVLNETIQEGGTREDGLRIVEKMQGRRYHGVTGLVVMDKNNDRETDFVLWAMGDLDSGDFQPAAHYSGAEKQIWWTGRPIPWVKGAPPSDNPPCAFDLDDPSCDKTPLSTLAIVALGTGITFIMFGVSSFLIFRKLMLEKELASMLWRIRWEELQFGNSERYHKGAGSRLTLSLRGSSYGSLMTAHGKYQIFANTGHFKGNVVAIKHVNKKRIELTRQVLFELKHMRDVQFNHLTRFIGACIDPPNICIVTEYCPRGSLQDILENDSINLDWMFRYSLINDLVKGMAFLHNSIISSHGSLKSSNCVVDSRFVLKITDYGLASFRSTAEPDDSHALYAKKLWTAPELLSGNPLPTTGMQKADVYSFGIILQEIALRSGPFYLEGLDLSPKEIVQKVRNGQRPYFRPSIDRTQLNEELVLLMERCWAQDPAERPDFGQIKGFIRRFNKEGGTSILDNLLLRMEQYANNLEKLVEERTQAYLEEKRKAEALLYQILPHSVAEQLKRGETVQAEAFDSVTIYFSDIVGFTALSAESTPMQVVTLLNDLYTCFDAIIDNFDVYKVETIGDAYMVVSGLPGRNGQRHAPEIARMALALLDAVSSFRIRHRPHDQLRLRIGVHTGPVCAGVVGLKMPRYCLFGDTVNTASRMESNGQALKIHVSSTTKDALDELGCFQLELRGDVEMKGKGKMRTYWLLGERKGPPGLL
Chain of neutral endopeptidase (NEP) (P08473 whole entry): as the sequence (P08473 whole entry) above
Chain of NPR-C (P17342 27-541, species assumed): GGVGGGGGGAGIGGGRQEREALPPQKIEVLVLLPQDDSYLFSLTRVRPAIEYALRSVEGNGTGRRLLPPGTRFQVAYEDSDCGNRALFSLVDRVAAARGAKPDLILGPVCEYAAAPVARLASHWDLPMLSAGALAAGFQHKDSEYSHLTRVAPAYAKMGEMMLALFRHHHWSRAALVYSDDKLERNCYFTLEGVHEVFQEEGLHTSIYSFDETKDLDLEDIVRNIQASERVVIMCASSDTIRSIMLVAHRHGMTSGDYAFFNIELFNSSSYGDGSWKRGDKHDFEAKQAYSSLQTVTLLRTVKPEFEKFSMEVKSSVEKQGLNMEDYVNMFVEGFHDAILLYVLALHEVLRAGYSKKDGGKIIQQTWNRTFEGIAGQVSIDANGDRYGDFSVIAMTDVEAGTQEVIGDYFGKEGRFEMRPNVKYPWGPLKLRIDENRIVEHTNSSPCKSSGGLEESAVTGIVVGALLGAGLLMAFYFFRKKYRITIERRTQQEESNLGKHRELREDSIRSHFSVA

By half-life is commonly meant the time in which the quantity being followed falls by half. Read a low half-life as rapid decline. For the compound `CC[C@H](C)[C@@H]1NC(=O)[C@H](CCCNC(=N)N)NC(=O)[C@H](CC(=O)O)NC(=O)[C@H](CC(C)C)NC(=O)[C@H](CCCCN)NC(=O)[C@H](CC(C)C)NC(=O)CNC(=O)[C@H](Cc2ccccc2)NC(=O)[C@@H](NC(=O)CNC(=O)[C@H](CCCCN)NC(=O)[C@H](CO)NC(=O)[C@H](CC(C)C)NC(=O)CNC(=O)[C@H](CCCCN)NC(=O)[C@H](CCCCN)NC(=O)[C@H](CC(N)=O)NC(=O)[C@H](C)NC(=O)CNC(=O)[C@H](CCCCN)NC(=O)[C@H](Cc2ccc(O)cc2)NC(=O)[C@H](CCCCN)NC(=O)[C@H](CCCNC(=N)N)NC(=O)[C@H](C)NC(=O)[C@H](CC(N)=O)NC(=O)[C@@H]2CCCN2C(=O)[C@H](Cc2c[nH]cn2)NC(=O)[C@H](CCC(=O)O)NC(=O)[C@H](CCC(N)=O)NC(=O)CN)CSSC[C@@H](C(=O)O)NC(=O)CNC(=O)[C@H](CC(C)C)NC(=O)CNC(=O)[C@H](CO)NC(=O)[C@H](CCSC)NC(=O)[C@H](CO)NC(=O)CNC1=O` [Analog DB], the “resistance to NEP cleavage (in words)” value in data set [1] is “completely resistant to NEP cleavage”. The half-life at 100 uM in data set [2] is more than 2.67 h. For the same compound, in data set [3] (mouse, in vivo), the IgG immune response entry was “one out of six”.

Take `CC[C@H](C)[C@@H]1NC(=O)[C@H](CCCNC(=N)N)NC(=O)[C@H](CC(=O)O)NC(=O)[C@H](CC(C)C)NC(=O)[C@H](CCCCN)NC(=O)[C@H](CC(C)C)NC(=O)CNC(=O)[C@H](Cc2ccccc2)NC(=O)[C@@H](NC(=O)CNC(=O)[C@H](CCCNC(=N)N)NC(=O)[C@H](CO)NC(=O)[C@H](CC(C)C)NC(=O)CNC(=O)[C@H](CCCNC(=N)N)NC(=O)[C@H](CCCNC(=N)N)NC(=O)[C@H](CC(N)=O)NC(=O)[C@H](C)NC(=O)CNC(=O)CCOCCOCCOCCOCCOCCOCCOCCOCCOCCOCCOCCOC)CSSC[C@@H](C(=O)O)NC(=O)CNC(=O)[C@H](CC(C)C)NC(=O)CNC(=O)[C@H](CO)NC(=O)[C@H](CCSC)NC(=O)[C@H](CO)NC(=O)CNC1=O` [PEO12-GANRR-CNP22(K4R)] ({CH3O(CH2CH2O)11CH2CH2CO}-GANRRGLSRGCFGLKLDRIGSMSGLGC-OH; disulfide 11-27; C-terminus assumed): the “resistance to NEP cleavage (in words)” value in data set [1] is recorded as “much greater stability to NEP degradation compared to wtCNP22”. Also, in [4], the “Anterior to Posterior (Skull) length, relative to vehicle = 100%” value was 101%; the “Femur length, relative to vehicle = 100%” value is recorded as 102%*; the “Humerus length, relative to vehicle = 100%” value is recorded as 102%*; the “LV5 length, relative to vehicle = 100%” value worked out at 103%. In data set [4], the “Naso-Anal (body) length, relative to vehicle = 100%” value is reported as 104%**; the “Tail length, relative to vehicle = 100%” value worked out at 101%; the “Tibia length, relative to vehicle = 100%” value was 100%; the “Ulna length, relative to vehicle = 100%” value was 96%*. Further, the IgG immune response entry in data set [3] (mouse, in vivo) is “None of the wild-type mice”.

In [5], “ANP (atrial natriuretic peptide) (from UniProt P01160 124-151)” registered a cGMP response rel. to 1 uM CNP22; 10 nM peptide, NIH3T3 cells (rel. to 1 uM CNP22 (100)) of 10 and a cGMP response rel. to 1 uM CNP22; 1 uM peptide, NIH3T3 cells (rel. to 1 uM CNP22 (100)) of 23.

Broadly, the bioavailability is the share of a dose that reaches the circulation, judged against a reference dose that is usually intravenous. Lower therefore signals poor availability. Regarding `CC[C@H](C)[C@@H]1NC(=O)[C@H](CCCNC(=N)N)NC(=O)[C@H](CC(=O)O)NC(=O)[C@H](CC(C)C)NC(=O)[C@H](CCCCN)NC(=O)[C@H](CC(C)C)NC(=O)CNC(=O)[C@H](Cc2ccccc2)NC(=O)[C@@H](NC(=O)CNC(=O)[C@H](CCCCN)NC(=O)[C@H](CO)NC(=O)[C@H](CC(C)C)NC(=O)CN)CSSC[C@@H](C(=O)O)NC(=O)CNC(=O)[C@H](CC(C)C)NC(=O)CNC(=O)[C@H](CO)NC(=O)[C@H](CCSC)NC(=O)[C@H](CO)NC(=O)CNC1=O` [CNP22, reference compound], the Kd in data set [6] was 0.007 to 0.03 nM; in data set [9], 0.011 to 0.14 nM. Moreover, the “area under the curve, AUC (pmol·min/mL)” value in [7] (i.v. 20 nmol/kg) is 320 (±54) pmol·min/mL. In data set [7] (s.c. 50 nmol/kg), the bioavailability is 19%. Further, the “in vivo (plasma) half-life” value in [8] is listed as 2.6 min. Also, the “NEP Cleavage (t1/2, min)” value in data set [1] (100 uM peptide, 1 ug/mL NEP, 0.1 M Tris pH 7, 37° C., adjusted t1/2, CNP22 normalized to 80 min) worked out at 80 min. Moreover, in [3] (FGFR3^ach mice, 5 week exposure, 200 nmol/kg), the IgG immune response result is recorded as “no positive IgG immune response in any of the mice”.

The values above are taken from patent USRE48267E1, “Variants of C-type natriuretic peptide” (priority 2009, dated 2020).
